Test results: patent US20090105235A1, “INSECTICIDAL COMPOSITIONS WITH IMPROVED EFFECT” (Bayer CropScience AG, priority 2005, published 2009)
Read-outs that look alike come from different tables or passages of the source.

Columns and labels:
Assay type in all cases: in vivo
[1] = test system: Aphis gossypii; test: Aphis gossypii test (Example A), cotton, spraying upper side of leaf; settings: active compound 24 g/ha, spray volume 600 l/ha
Description: To produce a suitable preparation of active compound, 1 part by weight of active compound is mixed with the stated amounts of solvent and emulsifier, and the concentrate is diluted with water to the desired concentration. If addition of ammonium salts, phosphonium salts or penetrants is required, the appropriate amount is added by pipette after dilution of the respective finished preparation solution.
Single-leaf cotton plants (Gossypium hirsutum) which are heavily infested by the cotton aphid (Aphis gossypii) are treated by spraying of the upper side of the leaf (spray volume 600 l/ha) with the active compound preparation at the desired concentration.
(§1) After the desired period of time, the kill in % is determined. 100% means that all animals have been killed; 0% means that none of the animals have been killed.

[2] = test system: Myzus persicae; test: Myzus persicae test (Example D), bell pepper plants sprayed; settings: for pest or weed control at 0.16 ppm / pest or weed control at 0.8 ppm / pest or weed control at 4 ppm: Myzus persicae, 144 h, read-out: Kill rate after 6 days, Without penetrant and AS; for Kill rate after 6 days, With penetrant and AS: with penetrant and AS (in each case 1000 ppm)
Description: (§2) To produce a suitable preparation of active compound, 1 part by weight of active compound is mixed with the stated amounts of solvent and emulsifier, and the concentrate is diluted with emulsifier-containing water to the desired concentration. If addition of ammonium salts or ammonium salts and penetrant is required, the appropriate amount is added by pipette after dilution of the respective finished preparation solution (in each case 1000 ppm).
Bell pepper plants (Capsicum annuum) which are heavily infested by the green peach aphid (Myzus persicaei) are treated by spraying with the active compound preparation at the desired concentration.
as §1

[3] = test system: Aphis gossypii; test: Aphis gossypii test (Example E), cotton leaves sprayed; settings: for Kill rate after 6 days, With penetrant and AS: with penetrant and AS (in each case 1000 ppm)
Description: as §2
Cotton leaves (Gossypium hirsutum) which are heavily infested by the cotton aphid (Aphis gossypii) are sprayed with an active compound preparation at the desired concentration.
After the desired period of time, the kill in % is determined. 100% means that all aphids have been killed; 0% means that none of the aphids have been killed.

[4] = test system: Aphis gossypii; test: Aphis gossypii test (APHIGO contact) (Example H), cotton, spraying underside of leaf; settings: active compound 0.192 g/ha
Description: (§3) To produce a suitable preparation of active compound, 1 part by weight of active compound is mixed with the stated amounts of solvent and emulsifier, and the concentrate is diluted with water to the desired concentration. If addition of ammonium salts or ammonium salts and penetrant is required, the appropriate amount is added by pipette after dilution of the respective finished preparation solution (in each case 1000 ppm).
Single-leaf cotton plants (Gossypium hirsutum) which are heavily infested by the cotton aphid (Aphis gossypii) are treated by spraying of the underside of the leaf with the active compound preparation at the desired concentration.
as §1

[5] = test system: Myzus persicae; test: Myzus persicae test (Example F), bell pepper, spraying underside of leaf; settings: active compound 0.48 g/ha
Description: as §3
Single-leaf bell pepper plants (Capsicum annuum) which are heavily infested by the green peach aphid (Myzus persicaei) are treated by spraying of the underside of the leaf with the active compound preparation at the desired concentration.
as §1

[6] = test system: Myzus persicae; test: Myzus persicae test (Example G), bell pepper, spraying upper side of leaf; settings: active compound 2.4 g/ha
Description: as §3
Single-leaf bell pepper plants (Capsicum annuum) which are heavily infested by the green peach aphid (Myzus persicaei) are treated by spraying of the upper side of the leaf with the active compound preparation at the desired concentration.
as §1

[7] = test system: Aphis gossypii; test: Aphis gossypii test (APHIGO translaminar) (Example I), cotton, spraying upper side of leaf; settings: active compound 0.192 g/ha
Description: as §3
Single-leaf cotton plants (Gossypium hirsutum) which are heavily infested by the cotton aphid (Aphis gossypii) are treated by spraying of the upper side of the leaf with the active compound preparation at the desired concentration.
as §1

[8] = active compound 0.16 ppm, 6 days
[9] = Aphis gossypii, 144 h, read-out: Kill rate after 6 days, Without penetrant and AS
[10] = active compound 0.8 ppm, 6 days
[11] = with penetrant and AS (in each case 1000 ppm)
[12] = active compound 0.16 ppm, without penetrant and AS, 6 days
[13] = Aphis gossypii, 144 h, active compound 0.16 ppm, without penetrant and AS, 6 days, read-out: Kill rate after 6 days, Without penetrant and AS
[14] = active compound 0.8 ppm, without penetrant and AS, 6 days
[15] = Aphis gossypii, 144 h, active compound 0.8 ppm, without penetrant and AS, 6 days, read-out: Kill rate after 6 days, Without penetrant and AS

SMILES: CON/C(=N\[N+](=O)[O-])NCc1cnc(Cl)s1 [(Ib-3)]
- Kill rate after 3 days, With AS 1 g/l ([1]; with ammonium sulphate 1 g/l): 99%
- Kill rate after 3 days, Without AS ([1]; without ammonium sulphate): 77%

SMILES: CN1COCN(Cc2cnc(Cl)s2)/C1=N/[N+](=O)[O-] [Ia-1, thiamethoxam, reference compound]
- pest or weed control at 0.16 ppm [2]: 10%
- Kill rate after 6 days, With penetrant and AS [2, 8]: 85%
- pest or weed control at 0.16 ppm [3, 9]: 0%
- Kill rate after 6 days, With penetrant and AS [3, 8]: 40%

SMILES: CN/C(=N\[N+](=O)[O-])NCc1cnc(Cl)s1 [Ia-2, clothianidin, reference compound]
- pest or weed control at 0.8 ppm [2]: 60%
- Kill rate after 6 days, With penetrant and AS [2, 10]: 100%

SMILES: N#C/N=C1\SCCN1Cc1ccc(Cl)nc1 [Ia-3, thiacloprid, reference compound]
- pest or weed control at 0.16 ppm [2]: 0%
- Kill rate after 6 days, With penetrant and AS [2, 8]: 50%
- pest or weed control at 0.16 ppm [3, 9]: 0%
- Kill rate after 6 days, With penetrant and AS [3, 8]: 70%

SMILES: CN/C(=N\[N+](=O)[O-])NCC1CCOC1 (stereo not drawn) [Ia-4, dinotefuran, reference compound]
- pest or weed control at 4 ppm [2]: 10%
- Kill rate after 6 days, With penetrant and AS ([2]; active compound 4 ppm, 6 days): 80%
- pest or weed control at 0.8 ppm [3, 9]: 0%
- Kill rate after 6 days, With penetrant and AS [3, 10]: 35%

SMILES: C/C(=N\C#N)N(C)Cc1ccc(Cl)nc1 [Ia-5, acetamiprid, reference compound]
- pest or weed control at 0.16 ppm [2]: 0%
- Kill rate after 6 days, With penetrant and AS [2, 8]: 90%

SMILES: CCN(Cc1ccc(Cl)nc1)/C(=C/[N+](=O)[O-])NC [Ia-6, nitenpyram, reference compound]
- pest or weed control at 0.8 ppm [2]: 10%
- Kill rate after 6 days, With penetrant and AS [2, 10]: 90%
- pest or weed control at 0.8 ppm [3, 9]: 25%
- Kill rate after 6 days, With penetrant and AS [3, 10]: 99%

SMILES: O=[N+]([O-])/N=C1\NCCN1Cc1ccc(Cl)nc1 [Ia-7, imidacloprid, reference compound]
- pest or weed control at 4 ppm [2]: 40%
- Kill rate after 6 days, With penetrant and AS ([2]; active compound 4 ppm, 6 days): 100%
- pest or weed control at 4 ppm [3, 9]: 15%
- Kill rate after 6 days, With penetrant and AS ([3]; active compound 4 ppm, 6 days): 95%

SMILES: O=[N+]([O-])/N=C1\NCCN1Cc1cnc(Cl)s1 [Ia-8, imidaclothiz, reference compound]
- pest or weed control at 0.8 ppm [3, 9]: 65%
- Kill rate after 6 days, With penetrant and AS [3, 10]: 95%

SMILES: CN1CN(C)/C(=N\[N+](=O)[O-])N(Cc2cnc(Cl)s2)C1 [Ia-9, AKD-1022]
- pest or weed control at 0.8 ppm [2]: 70%
- Kill rate after 6 days, With penetrant and AS [2, 10]: 100%
- pest or weed control at 0.8 ppm [3, 9]: 80%
- Kill rate after 6 days, With penetrant and AS [3, 10]: 100%

SMILES: C/N=C(\C(=C/N(C)C)[N+](=O)[O-])N(C)Cc1ccc(Cl)nc1 [Ic-1]
- Kill rate after 7 days, With penetrant and AS [4, 11]: 70%
- Kill rate after 7 days, Without penetrant and AS ([4]; without penetrant and AS): 0%
- Kill rate after 7 days, With penetrant and AS [5, 11]: 67%
- Kill rate after 7 days, Without penetrant and AS ([5]; without penetrant and AS): 0%
- pest or weed control at 0.8 ppm [2]: 0%
- Kill rate after 6 days, With penetrant and AS [2, 10]: 95%
- Kill rate after 7 days, With penetrant and AS [6, 11]: 53%
- Kill rate after 7 days, Without penetrant and AS ([6]; without penetrant and AS): 0%
- pest or weed control at 0.8 ppm [3, 9]: 5%
- Kill rate after 6 days, With penetrant and AS [3, 10]: 60%

SMILES: CN/C(=C\[N+](=O)[O-])C(C)c1ccc(Cl)nc1 (stereo not drawn) [Id-1]
- pest or weed control at 0.8 ppm [2]: 0%
- Kill rate after 6 days, With penetrant and AS [2, 10]: 90%
- pest or weed control at 0.8 ppm [3, 9]: 0%
- Kill rate after 6 days, With penetrant and AS [3, 10]: 55%

SMILES: O=C/C(=C1/NCCN1Cc1ccc(Cl)nc1)[N+](=O)[O-] [Ie-2]
- pest or weed control at 0.16 ppm [2]: 10%
- Kill rate after 6 days, With penetrant and AS [2, 8]: 95%
- pest or weed control at 0.16 ppm [3, 9]: 10%
- Kill rate after 6 days, With penetrant and AS [3, 8]: 95%

SMILES: CN(Cc1ccc(Cl)nc1)C1=CC(=O)OC1 [If-1]
- pest or weed control at 0.16 ppm [2, 12]: 20%
- Kill rate after 6 days, With penetrant and AS [2, 8]: 85%
- Kill rate after 7 days, With penetrant and AS [7, 11]: 70%
- Kill rate after 7 days, Without penetrant and AS ([7]; without penetrant and AS): 0%
- pest or weed control at 0.16 ppm [3, 13]: 30%
- Kill rate after 6 days, With penetrant and AS [3, 8]: 75%

SMILES: O=C1C=C(NCc2ccc(Cl)nc2)CO1 [If-2]
- pest or weed control at 0.16 ppm [2, 12]: 0%
- Kill rate after 6 days, With penetrant and AS [2, 8]: 50%
- pest or weed control at 0.16 ppm [3, 13]: 0%
- Kill rate after 6 days, With penetrant and AS [3, 8]: 50%

SMILES: C=CCN(CCN/C(=C/[N+](=O)[O-])SC)Cc1ccc(Cl)nc1 [Ih-1]
- pest or weed control at 0.8 ppm [2, 14]: 20%
- Kill rate after 6 days, With penetrant and AS [2, 10]: 98%
- pest or weed control at 0.8 ppm [3, 15]: 5%
- Kill rate after 6 days, With penetrant and AS [3, 10]: 95%

SMILES: C#CCN(CCN/C(=C/[N+](=O)[O-])OC)Cc1ccc(Cl)nc1 [Ih-2]
- pest or weed control at 0.8 ppm [2, 14]: 80%
- Kill rate after 6 days, With penetrant and AS [2, 10]: 98%
- pest or weed control at 0.8 ppm [3, 15]: 65%
- Kill rate after 6 days, With penetrant and AS [3, 10]: 90%

SMILES: C#CCN(CCN/C(=N/[N+](=O)[O-])OC)Cc1ccc(Cl)nc1 [Ih-3]
- pest or weed control at 0.8 ppm [3, 15]: 15%
- Kill rate after 6 days, With penetrant and AS [3, 10]: 55%

SMILES: CS/C(=N\[N+](=O)[O-])NCCN(Cc1ccc(Cl)nc1)CC1CC1 [Ih-4]
- pest or weed control at 0.8 ppm [3, 15]: 15%
- Kill rate after 6 days, With penetrant and AS [3, 10]: 45%
